Drawing on ChEMBL document CHEMBL1131977, “Synthesis and in vitro activity of new oxazolidinone antibacterial agents having substituted isoxazoles” (1999), this text covers MIC for twelve molecules.

Converted amounts (≈) assume the structure as drawn.

Holding throughout (format): functional
The test system of assay [1] is Staphylococcus epidermidis. Nature of the assay: In vitro antibacterial activity against Staphylococcus epidermis (S.e.2) C2235.
The subject of assay [2] is Streptococcus pyogenes. Description: In vitro antibacterial activity against Streptococcus pyogenes ATCC 8668 (S.p.1).
Assay [3] deals with Enterococcus faecium. Nature of the assay: In vitro antibacterial activity against vancomycin-resistant Enterococcus faecium C6487 (VRE).
Assay [4] has as its system Staphylococcus aureus. Description: In vitro antibacterial activity against ciprofloxacin-resistant Staphylococcus aureus (CRSA) C6043.
The subject of assay [5] is Enterococcus faecalis. Description: In vitro antibacterial activity against Enterococcus faecalis C6291 (E.f.1).
The subject of assay [6] is Staphylococcus aureus. Description: In vitro antibacterial activity against Staphylococcus aureus (S. a.) ATCC 29213.
Assay [7] concerns Staphylococcus aureus. Nature of the assay: In vitro antibacterial activity against methicillin-resistant Staphylococcus aureus (MRSA) C6068.
Assay [8] relates to Enterococcus faecium. Nature of the assay: In vitro antibacterial activity against Enterococcus faecium C6301 (E.f.2).
Assay [9] relates to Streptococcus pyogenes. Nature of the assay: In vitro antibacterial activity against Streptococcus pyogenes C6003 (S.p.2).
In assay [10] the test system is Staphylococcus aureus. Description: In vitro antibacterial activity against methicillin-susceptible Staphylococcus aureus (MSSA) C2214.
The subject of assay [11] is Staphylococcus epidermidis. Description: In vitro antibacterial activity against Staphylococcus epidermis (S.e.1) […].

One may read the MIC as the least concentration at which growth counts as inhibited. A higher MIC goes with weaker potency. For `CC(=O)NC[C@H]1CN(c2ccc(N3CCN(C(=O)c4cc(COC(N)=O)no4)CC3)c(F)c2)C(=O)O1`, the MIC in assay [1] amounted to 0.5 mg/L (≈ 0.991 µM); in assay [2], 0.5 mg/L (≈ 0.991 µM); in assay [3], 1 mg/L (≈ 1.98 µM); in assay [4], 2 mg/L (≈ 3.96 µM); in assay [5], 1 mg/L (≈ 1.98 µM); in assay [6], 2 mg/L (≈ 3.96 µM). The MIC in [7] amounted to 1 mg/L (≈ 1.98 µM); in assay [8], 1 mg/L (≈ 1.98 µM); in assay [9], 0.5 mg/L (≈ 0.991 µM); in assay [10], 2 mg/L (≈ 3.96 µM); in assay [11] it was 0.5 mg/L (≈ 0.991 µM).

With `CC(=O)NC[C@H]1CN(c2ccc(N3CCN(Cc4cc(-c5ccc(F)cc5)no4)CC3)c(F)c2)C(=O)O1`, the minimum inhibitory concentration (MIC) in [1] amounted to 4 mg/L (≈ 7.82 µM); in [2] it was 2 mg/L (≈ 3.91 µM); in assay [3], 4 mg/L (≈ 7.82 µM); in assay [4], 8 mg/L (≈ 15.6 µM); in assay [5], 4 mg/L (≈ 7.82 µM); in assay [6], 8 mg/L (≈ 15.6 µM). For the same molecule, the MIC in assay [7] turned out to be 4 mg/L (≈ 7.82 µM); in [8], 4 mg/L (≈ 7.82 µM); in [9], 2 mg/L (≈ 3.91 µM); in assay [10], 8 mg/L (≈ 15.6 µM); in [11] it was 2 mg/L (≈ 3.91 µM).

Consider `COc1ccc(-c2cc(CN3CCN(c4ccc(N5C[C@H](CNC(C)=O)OC5=O)cc4F)CC3)on2)cc1OC`, for which the MIC in [1] was determined as 4 mg/L (≈ 7.23 µM); in [2], 2 mg/L (≈ 3.61 µM); in [3] it was 2 mg/L (≈ 3.61 µM); in assay [4] it was 4 mg/L (≈ 7.23 µM); in [5] it was 4 mg/L (≈ 7.23 µM); in assay [6] it was 4 mg/L (≈ 7.23 µM). In addition, the MIC came out at 2 mg/L (≈ 3.61 µM) in assay [7]; 4 mg/L (≈ 7.23 µM) in assay [8]; 1 mg/L (≈ 1.81 µM) in assay [9]; 4 mg/L (≈ 7.23 µM) in assay [10]; 2 mg/L (≈ 3.61 µM) in assay [11].

As to `COc1cccc(-c2cc(CN3CCN(c4ccc(N5C[C@H](CNC(C)=O)OC5=O)cc4F)CC3)on2)c1`, the MIC in assay [1] is 4 mg/L (≈ 7.64 µM); in assay [2] it was 4 mg/L (≈ 7.64 µM); in assay [3], 1 mg/L (≈ 1.91 µM); in assay [4], 2 mg/L (≈ 3.82 µM); in assay [5], 8 mg/L (≈ 15.3 µM); in [6] it was 4 mg/L (≈ 7.64 µM). The MIC in assay [7] stood at 4 mg/L (≈ 7.64 µM); in assay [8] it was 4 mg/L (≈ 7.64 µM); in assay [9], 1 mg/L (≈ 1.91 µM); in [10], 4 mg/L (≈ 7.64 µM); in assay [11], 4 mg/L (≈ 7.64 µM).

On to `CC(=O)NC[C@H]1CN(c2ccc(N3CCN(C(=O)c4cc(C)no4)CC3)c(F)c2)C(=O)O1`, for which the minimal inhibitory concentration (MIC) came to 1 mg/L (≈ 2.24 µM) in assay [1]; 0.5 mg/L (≈ 1.12 µM) in [2]; 2 mg/L (≈ 4.49 µM) in assay [3]; 4 mg/L (≈ 8.98 µM) in assay [4]; 4 mg/L (≈ 8.98 µM) in [5]; 4 mg/L (≈ 8.98 µM) in assay [6]. The MIC in [7] was 2 mg/L (≈ 4.49 µM); in [8], 2 mg/L (≈ 4.49 µM); in [9], 0.5 mg/L (≈ 1.12 µM); in assay [10], 8 mg/L (≈ 18 µM); in [11], 0.5 mg/L (≈ 1.12 µM).

As for `COc1cc(C(=O)N2CCN(c3ccc(N4C[C@H](CNC(C)=O)OC4=O)cc3F)CC2)on1`, the MIC is 0.5 mg/L (≈ 1.08 µM) in assay [1]; 0.5 mg/L (≈ 1.08 µM) in assay [2]; 2 mg/L (≈ 4.33 µM) in [3]; 4 mg/L (≈ 8.67 µM) in assay [4]; 2 mg/L (≈ 4.33 µM) in [5]; 4 mg/L (≈ 8.67 µM) in assay [6]. The MIC in assay [7] is 2 mg/L (≈ 4.33 µM); in [8], 2 mg/L (≈ 4.33 µM); in [9], 0.5 mg/L (≈ 1.08 µM); in [10] it was 4 mg/L (≈ 8.67 µM); in [11], 0.5 mg/L (≈ 1.08 µM).

`CC(=O)NC[C@H]1CN(c2ccc(N3CCN(C(=O)c4cc(C(F)(F)F)no4)CC3)c(F)c2)C(=O)O1`: the MIC in assay [1] was determined as 2 mg/L (≈ 4 µM); in assay [2], 1 mg/L (≈ 2 µM); in assay [3], 4 mg/L (≈ 8.01 µM); in assay [4], 4 mg/L (≈ 8.01 µM); in [5], 4 mg/L (≈ 8.01 µM); in assay [6], 4 mg/L (≈ 8.01 µM). Also, the MIC is 2 mg/L (≈ 4 µM) in assay [7]; 4 mg/L (≈ 8.01 µM) in assay [8]; 1 mg/L (≈ 2 µM) in assay [9]; 4 mg/L (≈ 8.01 µM) in [10]; 2 mg/L (≈ 4 µM) in assay [11].

Regarding `CC(=O)NC[C@H]1CN(c2ccc(N3CCN(Cc4cc(-c5ccc(Oc6ccccc6)cc5)no4)CC3)c(F)c2)C(=O)O1`, the MIC in [1] stood at 4 mg/L (≈ 6.83 µM); in assay [2], 1 mg/L (≈ 1.71 µM); in [3], 4 mg/L (≈ 6.83 µM); in [4], 8 mg/L (≈ 13.7 µM); in assay [5] it was 4 mg/L (≈ 6.83 µM); in assay [6], 8 mg/L (≈ 13.7 µM). The MIC amounted to 4 mg/L (≈ 6.83 µM) in [7]; 4 mg/L (≈ 6.83 µM) in [8]; 1 mg/L (≈ 1.71 µM) in [9]; 8 mg/L (≈ 13.7 µM) in [10]; 2 mg/L (≈ 3.42 µM) in [11].

`CC(=O)NC[C@H]1CN(c2ccc(N3CCN(C(=O)c4cc(-c5cnsn5)no4)CC3)c(F)c2)C(=O)O1`: the MIC in [1] was 1 mg/L (≈ 1.94 µM); in assay [2] it was 0.5 mg/L (≈ 0.97 µM); in [3] it was 1 mg/L (≈ 1.94 µM); in assay [4], 2 mg/L (≈ 3.88 µM); in assay [5], 2 mg/L (≈ 3.88 µM); in assay [6] it was 4 mg/L (≈ 7.76 µM). The MIC in [7] stood at 1 mg/L (≈ 1.94 µM); in assay [8], 2 mg/L (≈ 3.88 µM); in [9], 0.5 mg/L (≈ 0.97 µM); in [10], 4 mg/L (≈ 7.76 µM); in [11], 1 mg/L (≈ 1.94 µM).

Consider `CC(=O)NC[C@H]1CN(c2ccc(N3CCN(C(=O)c4cc(Cl)no4)CC3)c(F)c2)C(=O)O1`, for which the MIC in [1] amounted to 1 mg/L (≈ 2.15 µM); in [2], 1 mg/L (≈ 2.15 µM); in assay [3] it was 2 mg/L (≈ 4.29 µM); in [4] it was 2 mg/L (≈ 4.29 µM); in assay [5] it was 2 mg/L (≈ 4.29 µM); in assay [6], 4 mg/L (≈ 8.59 µM). Also, the MIC in assay [7] stood at 1 mg/L (≈ 2.15 µM); in assay [8], 2 mg/L (≈ 4.29 µM); in assay [9], 1 mg/L (≈ 2.15 µM); in assay [10] it was 4 mg/L (≈ 8.59 µM); in [11], 1 mg/L (≈ 2.15 µM).

As to `COc1cc(CN2CCN(c3ccc(N4C[C@H](CNC(C)=O)OC4=O)cc3F)CC2)on1`, the MIC in [1] turned out to be 4 mg/L (≈ 8.94 µM); in assay [2], 1 mg/L (≈ 2.23 µM); in assay [3], 4 mg/L (≈ 8.94 µM); in assay [4] it was 8 mg/L (≈ 17.9 µM); in assay [5], 8 mg/L (≈ 17.9 µM); in assay [6] it was 8 mg/L (≈ 17.9 µM). Besides, the MIC in assay [7] stood at 4 mg/L (≈ 8.94 µM); in assay [8] it was 4 mg/L (≈ 8.94 µM); in assay [9], 1 mg/L (≈ 2.23 µM); in assay [10], 8 mg/L (≈ 17.9 µM); in assay [11], 2 mg/L (≈ 4.47 µM).

As for `CC(=O)NC[C@H]1CN(c2ccc(N3CCN(C(=O)CO)CC3)c(F)c2)C(=O)O1` [EPEREZOLID], the minimum inhibitory concentration (MIC) was 1 mg/L (≈ 2.54 µM) in assay [1]; 0.25 mg/L (≈ 0.634 µM) in assay [2]; 1 mg/L (≈ 2.54 µM) in [3]; 2 mg/L (≈ 5.07 µM) in assay [4]; 2 mg/L (≈ 5.07 µM) in [5]; 2 mg/L (≈ 5.07 µM) in assay [6]. Further, the MIC in assay [7] was found to be 1 mg/L (≈ 2.54 µM); in assay [8], 1 mg/L (≈ 2.54 µM); in assay [9], 0.5 mg/L (≈ 1.27 µM); in assay [10] it was 2 mg/L (≈ 5.07 µM); in assay [11], 0.5 mg/L (≈ 1.27 µM).
